According to PubChem BioAssay (NCI):
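Each compound was tested at five concentrations against cells in 96-well plates for 48 hours. The concentration for full growth arrest is given as TGI.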

What was measured:
Test in all cases: inhibition of tumour cell growth, NCI panel, 48 h
[1] = test system: SNB-75 CNS
[2] = test system: DMS 114 small cell lung
[3] = test system: OVCAR-8 ovarian
[4] = test system: HOP-92 NSCLC
[5] = test system: UACC-257 melanoma
[6] = test system: U251 CNS
[7] = test system: SNB-19 CNS
[8] = test system: LOX IMVI melanoma
[9] = test system: NCI-H226 lung
[10] = test system: MALME-3M melanoma

`COC(=O)C12CC3CC(C1)CC(C(=O)OC)(C3)C2` showed a TGI [1] greater than 100 µM, a TGI [2] greater than 100 µM and a TGI [3] greater than 100 µM. It also gave a TGI [4] greater than 100 µM, a TGI [5] greater than 100 µM and a TGI [6] greater than 100 µM. For the same compound, the TGI [7] was greater than 100 µM and the TGI [8] was greater than 100 µM.

Compound `CCc1nc(N)nc(C(=O)NCCNC(=O)c2nc(N)nc(CC)c2C)c1C` has a TGI [1] greater than 100 µM, a TGI [2] greater than 100 µM and a TGI [9] greater than 100 µM. For the same compound, the TGI [3] was greater than 100 µM, the TGI [4] was greater than 100 µM and the TGI [10] was greater than 100 µM. For the same compound, the TGI [5] was greater than 100 µM, the TGI [6] was greater than 100 µM and the TGI [7] was greater than 100 µM. It also gave a TGI [8] greater than 100 µM.

For `COc1ccc2cc3[n+](cc2c1OC)CCc1cc(O)c(O)cc1-3`, the TGI [1] was greater than 100 µM, the TGI [2] was greater than 100 µM and the TGI [9] was greater than 100 µM. It also gave a TGI [3] greater than 100 µM, a TGI [4] greater than 100 µM and a TGI [10] greater than 100 µM. It also gave a TGI [5] greater than 100 µM, a TGI [6] greater than 100 µM and a TGI [7] greater than 100 µM. The TGI [8] was greater than 100 µM.

For `COC(=O)C12C3C4C5C3(C#N)C1C5(C(=O)OC)C42C(=O)N(C(C)C)C(C)C` (stereo unspecified), the TGI [1] was greater than 100 µM, the TGI [2] was greater than 100 µM and the TGI [9] was greater than 100 µM. For the same compound, the TGI [3] was greater than 100 µM, the TGI [4] was greater than 100 µM and the TGI [10] was greater than 100 µM. For the same compound, the TGI [5] was greater than 100 µM, the TGI [6] was greater than 100 µM and the TGI [7] was greater than 100 µM. It also gave a TGI [8] greater than 100 µM.

With `CCn1c(O)c(C=N)c(=O)n(CC)c1=O` the TGI [1] was greater than 100 µM, the TGI [2] was greater than 100 µM and the TGI [9] was greater than 100 µM. For the same compound, the TGI [3] was greater than 100 µM, the TGI [4] was greater than 100 µM and the TGI [10] was greater than 100 µM. For the same compound, the TGI [5] was greater than 100 µM, the TGI [7] was greater than 100 µM and the TGI [8] was greater than 100 µM.

`O=C1NC2CCC(C2)C1c1ccccc1` (stereo unspecified) gave a TGI [1] greater than 100 µM, a TGI [2] greater than 100 µM and a TGI [9] greater than 100 µM. It also gave a TGI [3] greater than 100 µM, a TGI [10] greater than 100 µM and a TGI [6] greater than 100 µM. It also gave a TGI [7] greater than 100 µM and a TGI [8] greater than 100 µM.

In the case of `CCCn1c(SCC)c2cc3cc4ccccc4cc3cc2c1-c1nc(F)nc(F)n1`, the TGI [1] is reported as greater than 100 µM, the TGI [2] is reported as greater than 100 µM and the TGI [9] is reported as greater than 100 µM. The TGI [3] was greater than 100 µM, the TGI [4] was greater than 100 µM and the TGI [10] was greater than 100 µM. It also gave a TGI [5] greater than 100 µM, a TGI [7] greater than 100 µM and a TGI [8] greater than 100 µM.

For `O=C1c2ccccc2C2(O)NC(=S)N(c3ccccc3)C12O` (stereo unspecified), the TGI [1] was greater than 100 µM, the TGI [2] was greater than 100 µM and the TGI [3] was greater than 100 µM. It also gave a TGI [4] greater than 100 µM, a TGI [10] greater than 100 µM and a TGI [5] greater than 100 µM. For the same compound, the TGI [6] was greater than 100 µM, the TGI [7] was greater than 100 µM and the TGI [8] was greater than 100 µM.

`COc1cc(C=Nc2ccc(C(C)C)cc2)cc(OC)c1OC` gave a TGI [1] greater than 100 µM, a TGI [2] greater than 100 µM and a TGI [9] greater than 100 µM. It also gave a TGI [3] greater than 100 µM, a TGI [4] greater than 100 µM and a TGI [10] greater than 100 µM. It also gave a TGI [5] greater than 100 µM, a TGI [6] greater than 100 µM and a TGI [7] greater than 100 µM. It also gave a TGI [8] greater than 100 µM.

Work on `O=c1ccnc2c1ccc1[nH]cccc12` yielded a TGI [1] greater than 100 µM, a TGI [2] greater than 100 µM and a TGI [9] greater than 100 µM. For the same compound, the TGI [3] was greater than 100 µM, the TGI [10] was greater than 100 µM and the TGI [5] was greater than 100 µM. It also gave a TGI [6] greater than 100 µM, a TGI [7] greater than 100 µM and a TGI [8] greater than 100 µM.

`Cc1ccc(NC(=O)CCC/C(CC(=O)c2ccc(Br)cc2)=N/NC(=O)CC#N)cc1` showed a TGI [1] greater than 100 µM, a TGI [2] greater than 100 µM and a TGI [9] greater than 100 µM. For the same compound, the TGI [3] was greater than 100 µM, the TGI [4] was greater than 100 µM and the TGI [10] was greater than 100 µM. The TGI [5] was greater than 100 µM, the TGI [6] was greater than 100 µM and the TGI [7] was greater than 100 µM. The TGI [8] was greater than 100 µM.

Compound `CC(=O)Nc1c(C)ccc2c1C(=O)c1ccccc1C2=O` has a TGI [1] greater than 100 µM, a TGI [2] greater than 100 µM and a TGI [9] greater than 100 µM. For the same compound, the TGI [3] was greater than 100 µM, the TGI [4] was greater than 100 µM and the TGI [10] was greater than 100 µM. For the same compound, the TGI [5] was greater than 100 µM, the TGI [6] was greater than 100 µM and the TGI [8] was greater than 100 µM.

`CCOC(=O)C1=C(Nc2ccc(Cl)cc2Cl)OC/C1=N\NS(=O)(=O)c1ccc(C)cc1` was tested, and the TGI [1] was greater than 100 µM, the TGI [2] was greater than 100 µM and the TGI [9] was greater than 100 µM. It also gave a TGI [3] greater than 100 µM, a TGI [4] greater than 100 µM and a TGI [10] greater than 100 µM. The TGI [5] was greater than 100 µM, the TGI [6] was greater than 100 µM and the TGI [7] was greater than 100 µM. For the same compound, the TGI [8] was greater than 100 µM.

`CC1(C)CCC[C@@]2(C)C1CC[C@H]1CC(O)C3(C)CCC12C3` (stereo partly specified) was tested, and the TGI [1] was 39.3 µM, the TGI [2] was 31.2 µM and the TGI [9] was 34.3 µM. It also gave a TGI [3] of 32.6 µM, a TGI [4] of 30.5 µM and a TGI [10] of 30.7 µM. It also gave a TGI [5] of 32.1 µM, a TGI [6] of 32.3 µM and a TGI [7] of 31.9 µM. For the same compound, the TGI [8] was 28.9 µM.
